Assay results published in patent US7645781B2, “N-aryl-2-oxazolidinone-5-carboxamides and their derivatives” (Pfizer Inc, priority 2002, dated 2010).
In brackets after ≈: the same amount, converted by molar mass.

Columns and labels:
[1] = system: Staphylococcus aureus (SAUR 9213); test: MIC by standard agar dilution method; assay type: cell-based; details: Mueller Hinton agar, incubated overnight at 35° C., read-out: MIC
Excerpt: The antibacterial agents of this invention have useful activity against a variety of organisms. The in vitro activity of compounds of this invention can be assessed by standard testing procedures such as the determination of minimum inhibitory concentration (MIC) by agar dilution as described in “Approved Standard. Methods for Dilution Antimicrobial Susceptibility Tests for Bacteria That Grow Aerobically”, 3rd. ed., published 1993 by the National Committee for Clinical Laboratory Standards, Villanova, Pa., USA. The in vitro MICs of test compounds are determined by a standard agar dilution method. A stock drug solution of each analog is prepared in the preferred solvent, usually DMSO:H2O (1:3). Serial 2-fold dilutions of each sample are made using 1.0 ml aliquots of sterile distilled water. To each 1.0 ml aliquot of drug is added 9 ml of molten Mueller Hinton agar medium. The drug-supplemented agar is mixed, poured into 15×100 mm petri dishes, and allowed to solidify and dry prior to inoculation. Vials of each of the test organisms are maintained frozen in the vapor phase of a liquid nitrogen freezer. Test cultures are grown overnight at 35° C. on the medium appropriate for the organism. Colonies are harvested with a sterile swab, and cell suspensions are prepared in Trypticase Soy broth (TSB) to equal the turbidity of a 0.5 McFarland standard. A 1:20 dilution of each suspension is made in TSB. The plates containing the drug supplemented agar are inoculated with a 0.001 ml drop of the cell suspension using a Steers replicator, yielding approximately 10^4 to 10^5 cells per spot. The plates are incubated overnight at 35° C. Following incubation the Minimum Inhibitory Concentration (MIC μg/ml), the lowest concentration of drug that inhibits visible growth of the organism, is read and recorded.

MIC [1] [µg/mL]	melting point	Structure (SMILES)
4 (≈ 12.9 µM)	185 to 187 °C (dec.)	NC(=O)[C@H]1CN(c2ccc(N3CCOCC3)c(F)c2)C(=O)O1 [Example 1, (5R)-(−)-3-[3-Fluoro-4-(4-morpholinyl)phenyl]-2-oxo-5-oxazolidinecarboxamide]
8 (≈ 24.7 µM)	182 to 183 °C (dec.)	CNC(=O)[C@H]1CN(c2ccc(N3CCOCC3)c(F)c2)C(=O)O1 [Example 2, (5R)-(−)-3-[3-Fluoro-4-(4-morpholinyl)phenyl]-N-methyl-2-oxo-5-oxazolidinecarboxamide]
8 (≈ 22.9 µM)	167 to 169 °C	C=CCNC(=O)[C@H]1CN(c2ccc(N3CCOCC3)c(F)c2)C(=O)O1 [Example 3, (5R)-(−)-3-[3-Fluoro-4-(4-morpholinyl)phenyl]-N-allyl-2-oxo-5-oxazolidinecarboxamide]
16 (≈ 45.5 µM)	165 to 167 °C	CCCNC(=O)[C@H]1CN(c2ccc(N3CCOCC3)c(F)c2)C(=O)O1 [Example 4, (5R)-(−)-3-[3-Fluoro-4-(4-morpholinyl)phenyl]-N-propyl-2-oxo-5-oxazolidinecarboxamide]
16 (≈ 47.2 µM)	206 to 208 °C (dec.)	CONC(=O)[C@H]1CN(c2ccc(N3CCOCC3)c(F)c2)C(=O)O1 [Example 5, (5R)-(−)-3-[3-Fluoro-4-(4-morpholinyl)phenyl]-N-methoxy-2-oxo-5-oxazolidinecarboxamide]
16 (≈ 49.2 µM)	141 to 143 °C	O=C(NO)[C@H]1CN(c2ccc(N3CCOCC3)c(F)c2)C(=O)O1 [Example 6, (5R)-(−)-3-[3-Fluoro-4-(4-morpholinyl)phenyl]-N-hydroxy-2-oxo-5-oxazolidinecarboxamide]
2 (≈ 6.64 µM)	240 to 242 °C (dec.)	NC(=O)[C@H]1CN(c2ccc(-c3cccnc3)c(F)c2)C(=O)O1 [Example 7, (5R)-(−)-3-[4-(3-Pyridyl)-3-fluorophenyl]-2-oxo-5-oxazolidinecarboxamide]
1 (≈ 3.32 µM)	256 to 259 °C (dec.)	NC(=O)[C@H]1CN(c2ccc(-c3ccncc3)c(F)c2)C(=O)O1 [Example 8, (5R)-(−)-3-[4-(4-Pyridyl)-3-fluorophenyl]-2-oxo-5-oxazolidinecarboxamide]
4 (≈ 13.1 µM)	164 to 169 °C	NC(=O)[C@H]1CN(c2ccc(C3=CCOCC3)c(F)c2)C(=O)O1 [Example 9, (5R)-(−)-3-[4-(3,6-Dihydro-2H-pyran-4-yl)-3-fluorophenyl]-2-oxo-5-oxazolidinecarboxamide]
4 (≈ 13 µM)	153 to 156 °C	NC(=O)[C@H]1CN(c2ccc(C3CCOCC3)c(F)c2)C(=O)O1 [Example 10, (5R)-(−)-3-[4-(Tetrahydro-2H-pyran-4-yl)-3-fluorophenyl]-2-oxo-5-oxazolidinecarboxamide]
4 (≈ 11.8 µM)	182 to 184 °C (dec.)	NC(=O)[C@H]1CN(c2ccc(C3=CC[S+]([O-])CC3)c(F)c2)C(=O)O1 (stereo partly drawn) [Example 11, (5R)-3-[4-(3,6-Dihydro-2H-thiopyran-4-yl)-3-fluorophenyl]-2-oxo-5-oxazolidinecarboxamide S-oxide]
2 (≈ 5.64 µM)	206 to 208 °C	NC(=O)[C@H]1CN(c2ccc(C3=CCS(=O)(=O)CC3)c(F)c2)C(=O)O1 [Example 12, (5R)-(−)-3-[4-(3,6-Dihydro-2H-thiopyran-4-yl)-3-fluorophenyl]-2-oxo-5-oxazolidinecarboxamide S,S-dioxide]
2 (≈ 5.61 µM)	229 to 231 °C (dec.)	NC(=O)[C@H]1CN(c2ccc(C3CCS(=O)(=O)CC3)c(F)c2)C(=O)O1 [Example 13, (5R)-(−)-3-[4-(Tetrahydro-2H-thiopyran-4-yl)-3-fluorophenyl]-2-oxo-5-oxazolidinecarboxamide S,S-dioxide]
4 (≈ 10.9 µM)	232 to 235 °C (dec.)	NC(=O)[C@H]1CN(c2ccc(N3CCN(C(=O)CO)CC3)c(F)c2)C(=O)O1 [Example 14, (5R)-(−)-3-[3-Fluoro-4-[4-(hydroxyacetyl)-1-piperazinyl]phenyl]-2-oxo-5-oxazolidinecarboxamide]
2 (≈ 5.33 µM)	245 to 248 °C (dec.)	NC(=O)[C@H]1CN(c2cc(F)c(N3CCS(=O)(=O)CC3)c(F)c2)C(=O)O1 [Example 15, (5R)-(−)-3-[4-(Thiomorpholin-4-yl)-3,5-difluorophenyl]-2-oxo-5-oxazolidinecarboxamide S,S-dioxide]
4 (≈ 12.2 µM)	181 to 183 °C	NC(=O)[C@H]1CN(c2cc(F)c(N3CCOCC3)c(F)c2)C(=O)O1 [Example 17, (5R)-(−)-3-[3,5-Difluoro-4-(4-morpholinyl)phenyl]-2-oxo-5-oxazolidinecarboxamide]
16 (≈ 47.1 µM)	226 to 228 °C	NC(=O)[C@H]1CN(c2ccc(N3CCS(=O)(=O)CC3)cc2)C(=O)O1 [Example 18, (5R)-(−)-3-[4-(Thiomorpholin-4-yl)phenyl]-2-oxo-5-oxazolidinecarboxamide S,S-dioxide]
4 (≈ 11.2 µM)	245 to 247 °C (dec.)	NC(=O)[C@H]1CN(c2ccc(N3CCS(=O)(=O)CC3)c(F)c2)C(=O)O1 [Example 20, (5R)-(−)-3-[3-Fluoro-4-(thiomorpholin-4-yl)phenyl]-2-oxo-5-oxazolidinecarboxamide S,S-dioxide]
8 (≈ 23.4 µM)	264 to 266 °C (dec.)	NC(=O)[C@H]1CN(c2ccc(N3CC[S+]([O-])CC3)c(F)c2)C(=O)O1 [Example 21, (5R)-(−)-3-[3-Fluoro-4-(thiomorpholin-4-yl)phenyl]-2-oxo-5-oxazolidinecarboxamide S-oxide]
4 (≈ 11.1 µM)	273 to 276 °C (dec.)	NC(=O)[C@H]1CN(c2cc(F)c(N3CC[S+]([O-])CC3)c(F)c2)C(=O)O1 [Example 22, (5R)-(−)-3-[3,5-Difluoro-4-(thiomorpholin-4-yl)phenyl]-2-oxo-5-oxazolidinecarboxamide S-oxide]
4 (≈ 11.8 µM)	279 to 281 °C (dec.)	NC(=O)[C@H]1CN(c2ccc([C@H]3CC[S@@+]([O-])CC3)c(F)c2)C(=O)O1 [Example 23, (5R)-3-[3-Fluoro-4-(cis-tetrahydro-1-oxido-2H-thiopyran-4-yl)phenyl]-2-oxo-5-oxazolidinecarboxamide]
2 (≈ 5.88 µM)	201 to 203 °C	NC(=O)[C@H]1CN(c2ccc([C@H]3CC[S@+]([O-])CC3)c(F)c2)C(=O)O1 [Example 24, (5R)-3-[3-Fluoro-4-(trans-tetrahydro-1-oxido-2H-thiopyran-4-yl)phenyl]-2-oxo-5-oxazolidinecarboxamide]
8 (≈ 23.6 µM)	211 to 212 °C	NC(=O)[C@H]1CN(c2ccc(C3CCS(=O)(=O)CC3)cc2)C(=O)O1 [Example 25, (5R)-(−)-3-[4-(tetrahydro-2H-thiopyran-4-yl)phenyl]-2-oxo-5-oxazolidinecarboxamide S,S-dioxide]
16 (≈ 49.6 µM)	269 to 273 °C (dec.)	NC(=O)[C@H]1CN(c2ccc([C@H]3CC[S@@+]([O-])CC3)cc2)C(=O)O1 [Example 26, (5R)-3-[4-(cis-tetrahydro-1-oxido-2H-thiopyran-4-yl)phenyl]-2-oxo-5-oxazolidinecarboxamide]
8 (≈ 24.8 µM)	174 to 175 °C	NC(=O)[C@H]1CN(c2ccc([C@H]3CC[S@+]([O-])CC3)cc2)C(=O)O1 [Example 27, (5R)-3-[4-(trans-tetrahydro-1-oxido-2H-thiopyran-4-yl)phenyl]-2-oxo-5-oxazolidinecarboxamide]
–	231 to 234 °C (dec.)	NC(=O)[C@H]1CN(c2ccc(C3CCS(=O)(=O)CC3)c(F)c2)C(=O)O1 [Example 28, (5R)-3-[4-(Tetrahydro-2H-thiopyran-4-yl)-3-fluorophenyl]-2-oxo-5-oxazolidinecarboxamide S,S-dioxide]
1 (≈ 3.41 µM)	274 to 276 °C (dec.)	Cn1c(=O)sc2cc(N3C[C@H](C(N)=O)OC3=O)ccc21 [Example 29, (5R)-(−)-3-(2,3-Dihydro-3-methyl-2-oxo-6-benzothiazolyl)-2-oxo-5-oxazolidinecarboxamide]
1 (≈ 3.25 µM)	211 to 212.5 °C	CCn1c(=O)sc2cc(N3C[C@H](C(N)=O)OC3=O)ccc21 [Example 30, (5R)-(−)-3-(2,3-Dihydro-3-ethyl-2-oxo-6-benzothiazolyl)-2-oxo-5-oxazolidinecarboxamide]
4 (≈ 12.4 µM)	–	CCn1c(=O)oc2cc(N3C[C@H](C(=O)NC)OC3=O)cc(F)c21 [Example 90, (5R)-3-(3-Ethyl-4-fluoro-2-oxo-2,3-dihydro-6-benzoxazolyl)-N-methyl-2-oxo-5-oxazolidinecarboxamide]
4 (≈ 11.9 µM)	–	CNC(=O)[C@H]1CN(c2cc(F)c3c(c2)oc(=O)n3C(C)C)C(=O)O1 [Example 91, (5R)-3-(4-Fluoro-3-isopropyl-2-oxo-2,3-dihydro-6-benzoxazolyl)-N-methyl-2-oxo-5-oxazolidinecarboxamide]
